The subject of one data set is Rhinovirus. In words: Antiviral assay: virus yield reduction measured by plaque assay in infected cells. It counts as cell-based. The text has this: (§1) Representative viruses of the Rhinovirus and Enterovirus genera were chosen for study: Rhinovirus 2 (RV2), Rhinovirus 14 (RV14), Coxsackievirus […] (CVB3) and Echovirus 11 (EV11). Each virus is propogated in two different cell lines as follows: RV2 and RV14 in HEL and HeLa cells, CVB3 in BS-C-1 and HeLa (human cervical adenocarcinoma) cells, EV11 in BS-C-1 (African green monkey kidney, primary) and HEL (human embryonic lung, primary) cells. Propogation of virus strains in two different cell lines is performed as different cell types may utilize different ion transport pathways.
(§2) Antiviral assays are determined as follows. Monolayers of HeLa T cells (human cervical adenocarcinoma) in 12-well plates are infected with 0.01 plaque forming units per cell of Rhinovirus 2 in minimum essential medium with Earle's salts (MEM) supplemented with 1% v/v fetal bovine serum (FBS) or mock-infected with medium for 1 hour. […] Cells are further incubated for 70 hours at 34° C., until extensive cell death is observed in the no drug control. Cells plus culture supernatants are freeze-thawed and virus titre in each sample is determined by plaque assay.

The next data set deals with HeLa cells. Put plainly: Cytotoxicity on uninfected cells, Alamar Blue metabolic activity. The settings on record: uninfected HeLa T cells, 70 hours at 34° C. For orientation: Resazurin is reduced to fluorescent resorufin, in cell work by metabolically active cells.
The test system of another data set is Enterovirus. In words: Antiviral assay: virus yield reduction measured by plaque assay in infected cells. It counts as cell-based.
Source text: as §1, §2

With `COc1ccc(CCN(C)CCCC(C#N)(c2ccc(OC)c(OC)c2)C(C)C)cc1OC` (centres unmarked) [Verapamil], in the data set on Rhinovirus, the “effectiveness against Rhinovirus” value is “particularly effective”.

As for `CCN(c1nc(N)c(C(=O)NC(=N)N)nc1Cl)C(C)C` [EIPA, 5-(N-ethyl-N-isopropyl)amiloride], in the data set on Rhinovirus, the “effectiveness against Rhinovirus” value is listed as “particularly effective”. Also, in the data set with HeLa cells, the “toxicity to HeLa cells compared to the inhibition of virus production” value is “far less toxic”.

Regarding `N=C(NCc1ccccc1)NC(=O)c1nc(Cl)c(N)nc1N` [Benzamil], in the data set with Enterovirus, the “effectiveness against Enterovirus” value was “particularly effective”.

On to `N=C(N)NC(=O)c1nc(Cl)c(N)nc1N` [Amiloride], for which, in the data set with Enterovirus, the “effectiveness against Enterovirus” value was “particularly effective”.

The values are drawn from patent publication US20050080122A1, “Anti-viral compounds” (priority 2002, published 2005).
